The record followed here is patent US7585895B2, “Therapeutic substituted cyclopentanes” (Allergan, Inc., priority 2005, dated 2009).

Common to all, as to format: cell-based
One assay addresses T1, hEP2/Gqs5 (Homo sapiens, UniProt P43116).
T1 construct: expressed in transfected cells
The experiment in a line: FLIPR calcium signal, EP2. The note with it: HEK-293(EBNA), value outside parentheses, read-out: Ca2+ Signal-EC50 (nM) EP2. In short, it runs like this:
(§1)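 Stably transfected HEK-293(EBNA) cells loaded with 2 μM Fluo-4 AM in HBSS-HEPES pH 7.4, 37° C; peak fluorescence rise after compound addition (FLIPR, 488 nm excitation) expressed relative to buffer and standard agonist controls (PGE2 for EP subtypes, U-46619 for TP). Tested 10^−5 to 10^−11 M, duplicates, n≧3.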

In another assay the target is T2, hTP (Homo sapiens, UniProt P21731).
T2 construct: expressed in transfected cells
T2 sequence (P21731 1-343): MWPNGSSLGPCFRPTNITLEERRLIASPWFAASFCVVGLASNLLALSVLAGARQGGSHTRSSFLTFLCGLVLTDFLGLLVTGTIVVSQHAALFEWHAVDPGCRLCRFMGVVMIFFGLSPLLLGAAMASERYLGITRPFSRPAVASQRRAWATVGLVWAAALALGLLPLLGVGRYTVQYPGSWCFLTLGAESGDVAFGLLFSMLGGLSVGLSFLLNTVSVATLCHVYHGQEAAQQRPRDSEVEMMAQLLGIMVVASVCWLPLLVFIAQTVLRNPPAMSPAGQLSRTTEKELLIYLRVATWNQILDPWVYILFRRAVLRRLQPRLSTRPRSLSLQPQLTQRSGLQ
In words: FLIPR calcium signal, TP. The note with it: HEK-293(EBNA). The procedure, abridged: as §1

The target in the next assay is T3, hDP/Gqs5 (Homo sapiens, UniProt Q13258).
T3 construct: expressed in transfected cells
T3 sequence (Q13258 1-359): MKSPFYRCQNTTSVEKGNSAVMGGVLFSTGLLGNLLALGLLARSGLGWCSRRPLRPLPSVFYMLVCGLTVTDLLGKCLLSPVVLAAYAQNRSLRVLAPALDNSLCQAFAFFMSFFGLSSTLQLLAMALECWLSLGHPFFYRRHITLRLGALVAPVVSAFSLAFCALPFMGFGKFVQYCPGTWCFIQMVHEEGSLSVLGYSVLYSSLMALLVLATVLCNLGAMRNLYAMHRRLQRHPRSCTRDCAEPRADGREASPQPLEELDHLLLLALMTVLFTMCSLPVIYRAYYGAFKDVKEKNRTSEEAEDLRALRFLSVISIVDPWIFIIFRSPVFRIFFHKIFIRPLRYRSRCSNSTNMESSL
The experiment in a line: FLIPR calcium signal, DP. As to conditions: HEK-293(EBNA). The procedure, abridged: as §1

T1 sequence (P43116 whole entry): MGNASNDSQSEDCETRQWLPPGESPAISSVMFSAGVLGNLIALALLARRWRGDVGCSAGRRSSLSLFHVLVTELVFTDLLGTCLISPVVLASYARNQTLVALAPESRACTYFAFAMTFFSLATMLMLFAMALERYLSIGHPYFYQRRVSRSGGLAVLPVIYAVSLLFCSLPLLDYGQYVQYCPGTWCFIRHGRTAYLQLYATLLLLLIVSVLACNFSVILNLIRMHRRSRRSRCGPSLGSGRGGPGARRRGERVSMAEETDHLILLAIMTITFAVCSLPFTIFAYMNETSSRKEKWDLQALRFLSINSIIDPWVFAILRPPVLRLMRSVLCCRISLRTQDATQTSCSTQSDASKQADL

Regarding `CCCCCC(O)C(C)(C)c1ccc([C@@H]2[C@@H](C/C=C\CCCC(=O)O)[C@H](Cl)C[C@H]2O)cc1` (stereo partly drawn) [Entry 31, (Z)-7-{(1R,2S,3R,5R)-5-Chloro-3-hydroxy-2-[4-(2-hydroxy-1,1-dimethyl-heptyl)-phenyl]-cyclopentyl}-hept-5-enoic acid], the EC50 (as a rule, the concentration that produces a half-maximal response) on hEP2/Gqs5 was found to be 544 nM. On hTP, the “Ca2+ Signal-EC50 (nM) TP” value was “not active”. In addition, the “Ca2+ Signal-EC50 (nM) DP” value on hDP/Gqs5 was “not active”.

For the compound `CCCCCCc1ccc([C@@H]2[C@@H](C/C=C\CCCC(=O)O)[C@H](Cl)C[C@H]2O)cc1` [Entry 33, (Z)-7-[(1R,2S,3R,5R)-5-Chloro-2-(4-hexyl-phenyl)-3-hydroxy-cyclopentyl]-hept-5-enoic acid], the EC50 on hEP2/Gqs5 was 26 nM. On hTP, the “Ca2+ Signal-EC50 (nM) TP” value is listed as “not active”. For the same compound, the “Ca2+ Signal-EC50 (nM) DP” value on hDP/Gqs5 is given as “not active”.

In the case of `CCCCCC(O)c1ccc([C@@H]2[C@@H](C/C=C\CCCC(=O)O)[C@H](Cl)C[C@@H]2O)cc1` (stereo partly drawn) [Entry 34, (Z)-7-{(1R,2S,3S,5R)-5-Chloro-3-hydroxy-2-[4-(1-hydroxy-hexyl)-phenyl]-cyclopentyl}-hept-5-enoic acid], the half-maximal effective concentration (EC50) on hEP2/Gqs5 is 16 nM; at hTP (read-out: Ca2+ Signal-EC50 (nM) TP), 6930 nM. Besides, on hDP/Gqs5, the “Ca2+ Signal-EC50 (nM) DP” value is “not active”.
